This is an account of results in article PMC3597565, “Display of Multimeric Antimicrobial Peptides on the Escherichia coli Cell Surface and Its Application as Whole-Cell Antibiotics” (PLoS ONE, 2013).

Values after ≈ are worked out from the molar mass of the structure shown. Peptide text beside a SMILES is read from it.

Format in all cases: cell-based
The test system of assay [1] is Pseudomonas putida (ATCC 17426). Particulars: ATCC 17426, 3 h; for MIC: pH 7.4. The protocol:
(§1) The antimicrobial activity of each peptide was determined against eight representative microorganisms, including Gram-positive and Gram-negative bacteria and fungi, using the broth micro dilution assay as described by Park et al. with a slight modification. Briefly, mid-logarithmic phase cells were diluted to 1×10^5 cfu/ml in 10 mM sodium phosphate buffer (NAPB), pH 7.4. Each well of 96-well propylene micro titer plates (Costar, Cambridge, MA, USA) was filled with 90 µl of the diluted cell suspension and 10 µl of serially diluted peptide samples. After incubation for 3 h, fresh medium (trypticase soy broth for bacteria and Saboraud' medium for fungi) was added to the mixture and incubated at 37°C (bacteria) or 30°C (fungi) for an additional 12 h. Inhibition of growth was determined by measuring the absorbance at 620 nm with a Model 550 Microplate Reader (Bio-Rad, Hercules, CA, USA). […] The MIC values were calculated as an average of two independent experiments performed in triplicate.
(§2) ^a To determine the effect of protease digestion on the antimicrobial activity of Buf IIIb-L, synthetic Buf IIIb-L was first incubated with pepsin, trypsin, or chymotrypsin. After incubation at 37 °C for 30 min, the antimicrobial activity of the digested peptide was determined against eight representative microorganisms, including Gram-positive and Gram-negative bacteria and fungi, as described in Materials and Methods.

Assay [2] deals with Staphylococcus aureus (ATCC 15752). To be noted: ATCC 15752, 3 h; for MIC: pH 7.4. Here is the method:
as §1, §2

Assay [3] relates to Candida albicans (ATCC 10231). Particulars: ATCC 10231, 3 h; for MIC: pH 7.4. Here is the method:
as §1, §2

In assay [4] the test system is Bacillus subtilis (ATCC 62037). Particulars: ATCC 62037, 3 h; for MIC: pH 7.4. Here is the method: as §1, §2
Assay [5] concerns Saccharomyces cerevisiae (ATCC 44774). Particulars: ATCC 44774, 3 h; for MIC: pH 7.4. Here is the method: as §1, §2
In assay [6] the test system is Salmonella enteritidis (ATCC 13076). Particulars: ATCC 13076, 3 h; for MIC: pH 7.4. Here is the method:
as §1, §2

For assay [7], the system named is Escherichia coli (ATCC 27325). Particulars: ATCC 27325, 3 h; for MIC: pH 7.4. The protocol:
as §1, §2

The test system of assay [8] is Streptococcus mutans (ATCC 25175). Particulars: ATCC 25175, 3 h; for MIC: pH 7.4. Here is the method:
as §1, §2

Assay [9] relates to eight representative microorganisms, including Gram-positive and Gram-negative bacteria and fungi. To be noted: 3 h. Here is the method:
as §1

Assay [10] has as its system Listeria monocytogenes (ATCC 15313). Particulars: ATCC 15313, 3 h. Here is the method:
as §1, with “After incubation for 3 h, fresh medium (trypticase soy broth for bacteria and Saboraud' medium for fungi) was added to the mixture and incubated at 37°C (bacteria) or 30°C (fungi) for an additional 12 h.” left out
Antimicrobial activities of the pepsin-digested peptide mixtures obtained from E. coli cells with surface-expressed LO-Bn fusion proteins were tested against two oral infectious pathogens, Salmonella enteritidis (ATCC 13076) and Listeria monocytogenes (ATCC 15313) as described above except using 10 µl of the 20-fold diluted peptide mixtures obtained from 1×10^11 E. coli cells with surface-expressed LO-Bn fusion proteins instead of synthetic peptide. Growth of cells was determined by measuring absorbance at 620 nm with a Model 550 Microplate Reader (Bio-Rad). […]

The term MIC denotes the lowest concentration that inhibits growth of the organism. Read a high MIC as a less susceptible organism. As to `CC[C@H](C)[C@H](NC(=O)[C@@H]1CCCN1C(=O)[C@H](Cc1c[nH]c2ccccc12)NC(=O)[C@H](CCC(N)=O)NC(=O)[C@H](CCCNC(=N)N)NC(=O)[C@@H](NC(=O)[C@@H](NC(=O)[C@@H](N)CCCNC(=N)N)C(C)C)C(C)C)C(=O)NCC(=O)N[C@@H](CCCNC(=N)N)C(=O)N[C@H](C(=O)N[C@H](C(=O)N[C@@H](CCCNC(=N)N)C(=O)N[C@@H](CCCNC(=N)N)C(=O)N[C@H](C(=O)N[C@H](C(=O)N[C@@H](CCCNC(=N)N)C(=O)N[C@@H](CCCNC(=N)N)C(=O)N[C@H](C(=O)N[C@H](C(=O)N[C@@H](CCCNC(=N)N)C(=O)N[C@@H](Cc1ccc(O)cc1)C(=O)O)C(C)C)C(C)C)C(C)C)C(C)C)C(C)C)C(C)C` [Buf IIIb-Y] (H-RVVRQWPIGRVVRRVVRRVVRY-OH), the MIC in [1] turned out to be 2 µg/mL (≈ 0.713 µM); in [2], 2 µg/mL (≈ 0.713 µM); in assay [3] it was 4 µg/mL (≈ 1.43 µM); in assay [4] it was 2 µg/mL (≈ 0.713 µM); in [5], 1 µg/mL (≈ 0.356 µM); in assay [6], 2 µg/mL (≈ 0.713 µM). The MIC in assay [7] is 4 µg/mL (≈ 1.43 µM); in assay [8] it was 2 µg/mL (≈ 0.713 µM).
`CC[C@H](C)[C@H](NC(=O)[C@@H]1CCCN1C(=O)[C@H](Cc1c[nH]c2ccccc12)NC(=O)[C@H](CCC(N)=O)NC(=O)[C@H](CCCNC(=N)N)NC(=O)[C@@H](NC(=O)[C@@H](NC(=O)[C@@H](N)CCCNC(=N)N)C(C)C)C(C)C)C(=O)NCC(=O)N[C@@H](CCCNC(=N)N)C(=O)N[C@H](C(=O)N[C@H](C(=O)N[C@@H](CCCNC(=N)N)C(=O)N[C@@H](CCCNC(=N)N)C(=O)N[C@H](C(=O)N[C@H](C(=O)N[C@@H](CCCNC(=N)N)C(=O)N[C@@H](CCCNC(=N)N)C(=O)N[C@H](C(=O)N[C@H](C(=O)N[C@@H](CCCNC(=N)N)C(=O)N[C@@H](Cc1ccccc1)C(=O)O)C(C)C)C(C)C)C(C)C)C(C)C)C(C)C)C(C)C` [Buf IIIb-F] (H-RVVRQWPIGRVVRRVVRRVVRF-OH): the minimum inhibitory concentration (MIC) in [1] is 4 µg/mL (≈ 1.43 µM); in assay [2], 2 µg/mL (≈ 0.717 µM); in [3], 0.5 µg/mL (≈ 0.179 µM); in assay [4] it was 2 µg/mL (≈ 0.717 µM); in assay [5], 0.5 µg/mL (≈ 0.179 µM); in assay [6], 2 µg/mL (≈ 0.717 µM). In addition, the minimum inhibitory concentration (MIC) in [7] turned out to be 4 µg/mL (≈ 1.43 µM); in [8], 2 µg/mL (≈ 0.717 µM).
On to `CC(C)C[C@H](NC(=O)CNC(=O)[C@H](C)NC(=O)[C@@H](N)CCCNC(=N)N)C(=O)N[C@@H](CCC(N)=O)C(=O)N[C@@H](Cc1ccccc1)C(=O)N1CCC[C@H]1C(=O)N[C@H](C(=O)NCC(=O)N[C@@H](CCCNC(=N)N)C(=O)N[C@@H](CC(C)C)C(=O)N[C@@H](CC(C)C)C(=O)N[C@@H](CCCNC(=N)N)C(=O)N[C@@H](CCCNC(=N)N)C(=O)N[C@@H](CC(C)C)C(=O)N[C@@H](CC(C)C)C(=O)N[C@@H](CCCNC(=N)N)C(=O)N[C@@H](CCCNC(=N)N)C(=O)N[C@@H](CC(C)C)C(=O)N[C@@H](CC(C)C)C(=O)N[C@@H](CCCNC(=N)N)C(=O)O)C(C)C` [Buforin llb, reference compound] (H-RAGLQFPVGRLLRRLLRRLLR-OH; N-terminus and C-terminus assumed), for which the MIC in [1] was 2 µg/mL (≈ 0.781 µM); in assay [2], 2 µg/mL (≈ 0.781 µM); in assay [3], 2 µg/mL (≈ 0.781 µM); in assay [4] it was 1 µg/mL (≈ 0.391 µM); in [5], 2 µg/mL (≈ 0.781 µM); in assay [6] it was 2 µg/mL (≈ 0.781 µM). The MIC in [7] amounted to 1 µg/mL (≈ 0.391 µM); in assay [8], 2 µg/mL (≈ 0.781 µM).
Regarding `CC[C@H](C)[C@H](NC(=O)[C@@H]1CCCN1C(=O)[C@H](Cc1c[nH]c2ccccc12)NC(=O)[C@H](CCC(N)=O)NC(=O)[C@H](CCCNC(=N)N)NC(=O)[C@@H](NC(=O)[C@@H](NC(=O)[C@@H](N)CCCNC(=N)N)C(C)C)C(C)C)C(=O)NCC(=O)N[C@@H](CCCNC(=N)N)C(=O)N[C@H](C(=O)N[C@H](C(=O)N[C@@H](CCCNC(=N)N)C(=O)N[C@@H](CCCNC(=N)N)C(=O)N[C@H](C(=O)N[C@H](C(=O)N[C@@H](CCCNC(=N)N)C(=O)N[C@@H](CCCNC(=N)N)C(=O)N[C@H](C(=O)N[C@H](C(=O)N[C@@H](CCCNC(=N)N)C(=O)O)C(C)C)C(C)C)C(C)C)C(C)C)C(C)C)C(C)C` [Buf IIIb] (H-RVVRQWPIGRVVRRVVRRVVR-OH), the “MIC, range over the microorganisms of Table 2” value in assay [9] lay in the range of 0.5 to 2 µg/mL. The MIC stood at 1 µg/mL (≈ 0.378 µM) in assay [1]; 2 µg/mL (≈ 0.757 µM) in assay [2]; 1 µg/mL (≈ 0.378 µM) in [3]; 2 µg/mL (≈ 0.757 µM) in assay [4]; 0.5 µg/mL (≈ 0.189 µM) in [5]; 2 µg/mL (≈ 0.757 µM) in [6]. The MIC in assay [7] is 1 µg/mL (≈ 0.378 µM); in assay [8] it was 2 µg/mL (≈ 0.757 µM).
As to `CC[C@H](C)[C@H](NC(=O)[C@@H]1CCCN1C(=O)[C@H](Cc1c[nH]c2ccccc12)NC(=O)[C@H](CCC(N)=O)NC(=O)[C@H](CCCNC(=N)N)NC(=O)[C@@H](NC(=O)[C@@H](NC(=O)[C@@H](N)CCCNC(=N)N)C(C)C)C(C)C)C(=O)NCC(=O)N[C@@H](CCCNC(=N)N)C(=O)N[C@H](C(=O)N[C@H](C(=O)N[C@@H](CCCNC(=N)N)C(=O)N[C@@H](CCCNC(=N)N)C(=O)N[C@H](C(=O)N[C@H](C(=O)N[C@@H](CCCNC(=N)N)C(=O)N[C@@H](CCCNC(=N)N)C(=O)N[C@H](C(=O)N[C@H](C(=O)N[C@@H](CCCNC(=N)N)C(=O)N[C@@H](CC(C)C)C(=O)O)C(C)C)C(C)C)C(C)C)C(C)C)C(C)C)C(C)C` [Buf IIIb-L] (H-RVVRQWPIGRVVRRVVRRVVRL-OH), the “MIC of Buf IIIb-L digested with Chymotrypsin” value in assay [1], in assay [2], in assay [3], in assay [4], in [5] and in assay [6] was >256 µg/mL throughout. In addition, the “MIC of Buf IIIb-L digested with Chymotrypsin” value in assay [7] and in [8] was >256 µg/mL in each case. In addition, the “MIC of Buf IIIb-L digested with Pepsin” value in assay [1] turned out to be 4 µg/mL; in assay [2], 2 µg/mL; in assay [3] it was 2 µg/mL; in [4], 2 µg/mL; in assay [5], 2 µg/mL; in assay [6], 4 µg/mL. Further, the “MIC of Buf IIIb-L digested with Pepsin” value in assay [7] and in [8] was 2 µg/mL each time. In addition, the “MIC of Buf IIIb-L digested with Trypsin” value in assay [1], in [2], in [3], in assay [4], in assay [5] and in [6] was >256 µg/mL in each case. Besides, the “MIC of Buf IIIb-L digested with Trypsin” value in assay [7] and in assay [8] was >256 µg/mL throughout. Moreover, the MIC in assay [1] is 4 µg/mL (≈ 1.45 µM); in [2], 2 µg/mL (≈ 0.726 µM); in assay [3], 2 µg/mL (≈ 0.726 µM); in [4] it was 2 µg/mL (≈ 0.726 µM); in assay [5] it was 2 µg/mL (≈ 0.726 µM); in [6], 4 µg/mL (≈ 1.45 µM). Further, the MIC in assay [7], in assay [8] and in assay [10] was 2 µg/mL (≈ 0.726 µM) throughout.
